Assay results reported in US12162904B2, “Mannose derivative and application thereof” (priority 2021, dated 2024).

Key:
[1] = Determination of lipid-water partition coefficient (n-octanol/PBS); type: physicochemical; conditions: n-octanol / PBS 0.025 M, pH 7.4
Experimental: To a 5 mL centrifuge tube were added 100 μL of a ^99mTc-CN7DM solution with a radioactivity of 10 μCi, 1 mL of n-octanol and 900 μL of phosphate buffered saline (PBS) (0.025 M and pH 7.4). The mixture was vortexed at a rotation speed of 2,500 rpm for 3 min, subjected to standing for stratification, and centrifuged at 9,000 rpm in a centrifuge for 5 min. Three samples (each for 100 μL) were taken from each of the two phases, and determined by a γ-counter for the radioactivity counts.

[2] = Stability in mouse serum at 37° C. (radiochemical purity by TLC); type: in vitro ADME; conditions: 4 h
Experimental: (§1) The radiochemical purity of ^99mTc-CN7DM was determined by TLC after being placed in normal saline at room temperature and in mouse serum at 37° C. for 4 h.

[3] = Stability in normal saline at room temperature (radiochemical purity by TLC); type: physicochemical; conditions: 4 h
Experimental: as §1

mice bearing S180 tumors = assay: Biodistribution determination in tumor-bearing mice; type: in vivo; conditions: for Blood uptake / Bone uptake / Heart uptake / Kidney uptake / Liver uptake / Lung uptake / Muscle uptake / Small intestine uptake / Spleen uptake / Thyroid gland uptake / Tumor uptake: n = 5, mean ± SD; for Tumor uptake: S180 tumor
Experimental: 0.1 mL of the ^99mTc-CN7DM labeling solution (370 kBq) was injected into mice bearing S180 tumors through the tail vein. After recording the injection time, the mice were subjected to sacrificing by cervical […] at different time points of 30 min and 120 min (5 mice were executed at each time), dissecting, taking out tissues or organs of interest such as heart, liver, lungs, kidneys, spleen, bone, muscles, small intestine, blood and tumors. A radioactivity count of each of the tissues or organs was measured by the γ-counter, and uptake value of each of the tissues or organs in % ID/g was obtained by converting a mass of each of the tissues or organs.

[4] = 30 min after tail vein injection
[5] = 120 min after tail vein injection

For `[99Tc+].[C-]#[N+]CCCCCCCC(=O)NC1C(O)OC(CO)C(O)C1O.[C-]#[N+]CCCCCCCC(=O)NC1C(O)OC(CO)C(O)C1O.[C-]#[N+]CCCCCCCC(=O)NC1C(O)OC(CO)C(O)C1O.[C-]#[N+]CCCCCCCC(=O)NC1C(O)OC(CO)C(O)C1O.[C-]#[N+]CCCCCCCC(=O)NC1C(O)OC(CO)C(O)C1O.[C-]#[N+]CCCCCCCC(=O)NC1C(O)OC(CO)C(O)C1O` (centres unmarked) [^99mTc-CN7DM], the “log P (lipid-water partition coefficient)” value [1] was −3.15±0.06, the “radiochemical purity after standing (stability)” value [2] was “greater than 90%” and the “radiochemical purity after standing (stability)” value [3] was “greater than 90%”. For the same molecule, the Tumor/Blood ratio (mice bearing S180 tumors; [4]) was 3.79, the Tumor/Muscle ratio (mice bearing S180 tumors; [4]) was 3.25 and the Blood uptake (mice bearing S180 tumors; [4]) was 1.61 ± 0.17 % ID/g. It also gave a Bone uptake (mice bearing S180 tumors; [4]) of 1.41 ± 0.17 % ID/g, a Heart uptake (mice bearing S180 tumors; [4]) of 2.08 ± 0.26 % ID/g and a Kidney uptake (mice bearing S180 tumors; [4]) of 6.22 ± 0.91 % ID/g. The Liver uptake (mice bearing S180 tumors; [4]) was 2.91 ± 0.23 % ID/g, the Lung uptake (mice bearing S180 tumors; [4]) was 1.86 ± 0.19 % ID/g and the Muscle uptake (mice bearing S180 tumors; [4]) was 1.88 ± 0.16 % ID/g. The Small intestine uptake (mice bearing S180 tumors; [4]) was 1.05 ± 0.20 % ID/g, the Spleen uptake (mice bearing S180 tumors; [4]) was 1.23 ± 0.11 % ID/g and the Thyroid gland uptake (mice bearing S180 tumors; [4]) was 0.04 ± 0.01 % ID. It also gave a Tumor/Blood ratio (mice bearing S180 tumors; [5]) of 63.48, a Tumor/Muscle ratio (mice bearing S180 tumors; [5]) of 6.18 and a Blood uptake (mice bearing S180 tumors; [5]) of 0.09 ± 0.02 % ID/g. For the same molecule, the Bone uptake (mice bearing S180 tumors; [5]) was 0.76 ± 0.17 % ID/g, the Heart uptake (mice bearing S180 tumors; [5]) was 1.40 ± 0.14 % ID/g and the Kidney uptake (mice bearing S180 tumors; [5]) was 3.12 ± 0.82 % ID/g. The Liver uptake (mice bearing S180 tumors; [5]) was 2.13 ± 0.46 % ID/g, the Lung uptake (mice bearing S180 tumors; [5]) was 0.76 ± 0.20 % ID/g and the Muscle uptake (mice bearing S180 tumors; [5]) was 0.96 ± 0.12 % ID/g. It also gave a Small intestine uptake (mice bearing S180 tumors; [5]) of 0.42 ± 0.13 % ID/g, a Spleen uptake (mice bearing S180 tumors; [5]) of 0.80 ± 0.15 % ID/g and a Thyroid gland uptake (mice bearing S180 tumors; [5]) of 0.02 ± 0.00 % ID. For the same molecule, the Tumor uptake (mice bearing S180 tumors; [4]) was 6.11 ± 0.76 % ID/g and the Tumor uptake (mice bearing S180 tumors; [5]) was 5.92 ± 0.30 % ID/g.
